This note sets out measurements from article PMC10384675, “Novel Thiazolidine-2,4-dione-trimethoxybenzene-thiazole Hybrids as Human Topoisomerases Inhibitors” (Pharmaceuticals, 2023).

The test system of assay [1] is MDA-MB-231 breast cancer cells. The assay is described as follows: MTT cell viability assay, MDA-MB-231. The format is cell-based. The settings on record: Homo sapiens, 72 h. As to the method:
(§1) All of the synthesized compounds (7a–f) were studied to test their anticancer activity toward the estrogen receptor-positive (ER+) MCF-7 and the triple-negative MDA-MB-231 breast cancer cells (ER-, PR- and HER-2/Neu not overexpressed) and A2058 melanoma cells. Cells were incubated for 72 h with different concentrations of the compounds, and then the viability was checked by the MTT assay. […] Moreover, we checked the cytotoxicity of all of the synthesized compounds against the human MCF-10A non-malignant breast epithelial cells and mouse BALB/3T3 embryonic fibroblasts, in order to evaluate their selectivity on cancer cells.
(§2) The used cell lines (breast cancer cell lines MCF-7 and MDA-MB-231, melanoma cell line A2058 and human mammary epithelial cell line MCF-10A) were obtained from American Type Culture Collection (ATCC, Manassas, VA, USA) and cultured as already reported. The mouse BALB/3T3 embryonic fibroblasts were also purchased from American Type Culture Collection (ATCC, Manassas, VA, USA) and cultured in DMEM high glucose supplemented with 10% bovine calf serum (BCS) and 100 U mL^−1 penicillin/streptomycin.
(§3) MTT assay (Sigma Aldrich (St. Louis, MO, USA)) was performed for evaluating the in vitro anticancer activities of the compounds, as previously indicated. Different concentrations (0.1, 1, 10, 25, 50, and 100 μM) of the compounds were employed, with a 72 h endpoint. IC50 values were obtained from the percent (%) of control using GraphPad Prism 9 (GraphPad Software, La Jolla, CA, USA).
In general terms: Tetrazolium assays rely on reduction of a dye to a coloured formazan, in cell work by metabolically active cells.

Assay [2] deals with human MCF-10A non-malignant breast epithelial cells. As to the kind of experiment: MTT cytotoxicity assay, MCF-10A. The format is cell-based. Conditions: 72 h, normal cells. The protocol:
as §1, §2, §3

The target in a further assay is T1, hTopo II (Homo sapiens, UniProt P11388).
T1 construct: purchased TopoGEN, Port Orange, FL
T1 sequence (P11388 whole entry): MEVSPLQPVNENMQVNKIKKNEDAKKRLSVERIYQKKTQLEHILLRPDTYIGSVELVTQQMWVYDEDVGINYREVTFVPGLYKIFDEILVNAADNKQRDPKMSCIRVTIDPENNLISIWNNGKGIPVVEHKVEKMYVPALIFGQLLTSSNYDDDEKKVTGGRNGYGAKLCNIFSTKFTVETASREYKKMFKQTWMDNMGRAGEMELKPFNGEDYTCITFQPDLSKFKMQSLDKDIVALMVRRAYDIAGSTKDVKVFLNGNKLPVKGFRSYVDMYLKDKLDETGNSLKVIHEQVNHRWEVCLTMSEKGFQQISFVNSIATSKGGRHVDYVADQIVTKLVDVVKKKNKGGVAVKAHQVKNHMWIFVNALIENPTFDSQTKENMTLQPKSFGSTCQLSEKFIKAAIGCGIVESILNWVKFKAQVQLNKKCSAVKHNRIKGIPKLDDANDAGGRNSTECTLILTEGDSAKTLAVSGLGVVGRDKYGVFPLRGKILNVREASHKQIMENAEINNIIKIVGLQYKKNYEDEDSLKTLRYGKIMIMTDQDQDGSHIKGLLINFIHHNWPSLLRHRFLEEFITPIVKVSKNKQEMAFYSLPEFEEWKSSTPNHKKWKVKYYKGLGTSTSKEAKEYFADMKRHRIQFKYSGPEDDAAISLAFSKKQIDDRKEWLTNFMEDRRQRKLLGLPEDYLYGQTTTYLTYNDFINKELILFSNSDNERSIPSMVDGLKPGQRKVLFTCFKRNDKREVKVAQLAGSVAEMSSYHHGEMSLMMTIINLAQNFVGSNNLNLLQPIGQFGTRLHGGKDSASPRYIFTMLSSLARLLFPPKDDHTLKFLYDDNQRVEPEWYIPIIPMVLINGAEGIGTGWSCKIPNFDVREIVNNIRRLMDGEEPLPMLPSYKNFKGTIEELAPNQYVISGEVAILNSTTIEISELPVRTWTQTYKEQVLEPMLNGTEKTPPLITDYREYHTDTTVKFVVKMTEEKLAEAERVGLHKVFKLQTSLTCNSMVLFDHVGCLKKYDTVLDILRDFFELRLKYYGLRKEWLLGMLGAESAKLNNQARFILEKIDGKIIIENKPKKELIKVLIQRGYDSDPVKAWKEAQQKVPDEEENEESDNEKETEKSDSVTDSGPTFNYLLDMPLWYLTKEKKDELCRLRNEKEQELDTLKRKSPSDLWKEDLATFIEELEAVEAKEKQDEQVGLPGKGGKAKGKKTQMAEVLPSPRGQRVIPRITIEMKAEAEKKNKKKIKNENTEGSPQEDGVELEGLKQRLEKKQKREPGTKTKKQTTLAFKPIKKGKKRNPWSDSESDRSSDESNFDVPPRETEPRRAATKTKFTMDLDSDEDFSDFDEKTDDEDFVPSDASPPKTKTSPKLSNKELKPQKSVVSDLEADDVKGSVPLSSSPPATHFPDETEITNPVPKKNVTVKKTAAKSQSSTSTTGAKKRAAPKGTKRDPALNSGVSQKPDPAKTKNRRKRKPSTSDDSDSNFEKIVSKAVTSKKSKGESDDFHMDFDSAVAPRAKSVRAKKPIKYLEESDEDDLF
The assay is described as follows: hTopo II decatenation assay. The format is biochemical. Also noted: key to Topoisomerase Inhibition hTopo II: (+) inhibition; (−) no inhibition; (+/−) partial inhibition. As to the method:
The linear kDNA (Figure 4a,b, lanes A), decatenated kDNA (Figure 4a,b, lanes B) and the catenated circles of kDNA (Figure 4a,b, lanes C) were used as markers. A parallel experiment was performed using ellipticine as reference molecule.
hTopo I relaxation assays were performed by incubating the substrate (supercoiled pHOT1) with the recombinant hTopo I (TopoGEN, Port Orange, FL, USA) and compounds, as indicated in the supplier protocol (TopoGEN, Port Orange, FL, USA), with some revisions. hTopo II decatenation assays were conducted by incubating the kinetoplast DNA substrate (kDNA) with the hTopo II (TopoGEN, Port Orange, FL) and studied compounds, as indicated in the supplier procedures (TopoGEN, Port Orange, FL, USA), with some changes as in [80].
Figure 4 hTopo II decatenation assay. […] The same experiment was performed using ellipticine (c). Lane 1, decatenated kDNA marker; lane 2, linear kDNA marker; lane 3, CTRL (DMSO), lanes 4–5, ellipticine 10 and 50 µM, respectively.

For orientation: IC50 means the concentration needed to halve the response being measured.

As to `COc1cc(/C=C2\SC(=O)N(CC(=O)Nc3nc(-c4ccc(Br)cc4)cs3)C2=O)cc(OC)c1OC` [compound 7e, (Z)-2-(5-(3,4,5-Trimethoxybenzylidene)thiazolidin-2,4-dion-3-yl)-N-(4-(4-bromophenyl)thiazol-2-yl)acetamide], the values for the half-inhibitory concentration (IC50) in assay [1] and in assay [2] were 41.2 ± 0.9 µM and greater than 100 µM, respectively. Also, the “Topoisomerase Inhibition hTopo II” value on hTopo II (10 µM) is reported as “−”; at hTopo II (50 µM) it was “+”.
